The source of these data is patent US20220265657A1, “ADMINISTRATION METHOD AND DOSAGE REGIMEN FOR TREATMENT OF NEURODEGENERATIVE DISEASES USING TRAMETINIB AND MARKERS” (GENUV INC., priority 2019, published 2022).

The subject of assay [1] is 5XFAD mice. Kind of assay: Behavioral studies: Y-maze and novel object recognition tests. Type of assay: in vivo. The procedure:
(§1) Trametinib treatment: Trametinib (Medchemexpress, Monmouth Junction, N.J.) was micronized and suspended in the vehicle containing 5% mannitol, 1.5% hydroxypropyl methylcellulose and 0.2% sodium lauryl sulfate. For pharmacokinetic analysis, 0.05, 0.2 and 0.8 mg/kg of trametinib were orally administered to 7-week-old normal mice (ICR, n=5 per group) as a single administration. […] For studies on the change in pERK expression in normal mice and whole cell RNA sequencing study, 0.1 mg/kg/day of trametinib (in 4% DMSO+96% corn oil) was orally administered to 6-week old C57BL/6 mice (n=3 per group). Mice were sacrificed after 1, 2, 3, or 4 weeks of administration. 5XFAD mice (male, n=7˜10 per group) were divided into vehicle and trametinib treated groups. 12-month old mice received vehicle or 0.1 mg/kg of trametinib for 1 month by oral gavage once a day (These mice are referred to as “13-month old 5XFAD mice” in the Examples). […] Blood was obtained after completion of treatment.

In a further assay the test system is SH-SY5Y cells. Nature of the assay: Western blot of SH-SY5Y cell lysates. It counts as cell-based. On the procedure:
Cell culture: SH-SY5Y neuroblastoma cells were cultured at 37° C., 5% CO2., in Dulbecco's Modified Eagle Medium/Ham's F-12 nutrient mixture (DMEM/F12) (Invitrogen, Carlsbad, Calif.) supplemented with 10% heat-inactivated fetal bovine serum containing 100 units/ml penicillin, 100 μg/ml streptomycin. Primary cortical neuron cultures were derived from embryo day 18 (E18) from ICR mice. The dissociated cells were plated on glass cover slips coated with poly-D-lysine in Neurobasal medium supplemented with 2% B27 (Invitrogen), 100 units/ml penicillin, 100 μg/ml streptomycin, and 2 mM L-glutamine. Primary NSCs from normal mice were isolated from the subventricular zone (SVZ) of 8 week-old C57BL/6 mice brain. NSCs from adult Tg2576 mice brain were obtained from Seoul National University Hospital. The neurospheres were cultured as previously described (M. Y. Kim, B. S. Moon, K. Y. Choi, Isolation and maintenance of cortical neural progenitor cells in vitro. Methods Mol Biol 1018, 3-10 (2013)). For neurosphere culture from normal mice, the cells were dissociated from brain tissue and grown in N2 medium in 25 cm^2 flasks (SPL, Gyeonggi-do, Korea) in suspension. bFGF (20 ng/ml, Peprotech, Princeton, N.J.) and human EGF (20 ng/ml, Peprotech) were added to the media to allow the cells to form neurospheres. For analyses, NSCs were cultured as a monolayer. For differentiation of NSCs, the neurospheres were dissociated with TrypLE (Invitrogen), plated on 15 μg/ml poly-L-ornithine-(Sigma-Aldrich, St. Louis, Mo.) and 10 μg/ml fibronectin (Gibco)-coated plates, and cultured in bFGF- and EGF-depleted N2 medium for 2 days. For neurosphere culture from Tg2576 mice, the cells were grown in DMEM/F12 supplemented with B27 supplements in 75 cm^2 flasks (SPL) in suspension. bFGF (10 ng/ml) and human EGF (10 ng/ml) were added to the media to allow the cells to form neurospheres. For inducing differentiation and AP expression, the neurospheres were dissociated with pipetting, plated on 15 μg/ml poly-L-ornithine- and 10 μg/ml fibronectin (Gibco)-coated plates, and cultured in bFGF- and EGF-depleted medium for 2 days.
Lysates were centrifuged at 13,000 rpm for 20 min at 4° C., and the protein content in the supernatant was determined using the Bradford assay (Bio-rad, Hercules, Calif.). For subcellular fractionation, cells were lysed with lysis buffer (250 mM Sucrose, 20 mM HEPES, pH 7.4, 10 mM KCl, 1.5 mM MgCl2, 1 mM EGTA, 1 mM EDTA, 1 mM DTT) containing protease inhibitor for 30 min on ice, followed by centrifugation at 720 g for 5 min at 4° C. Supernatants were centrifuged at 15,000 rpm for 10 min at 4° C., and the resulting supernatant was used as the cytosol fraction. After centrifugation at 720 g for 5 min, pellets were washed with lysis buffer and dissolved in nuclear lysis buffer (50 mM Tris HCl, pH 8.0, 150 mM NaCl, 1% NP40, 0.5% sodium deoxycholate, 0.1% SDS, 10% glycerol) as the nuclear fraction. Protein from each sample was subjected to 8%˜15% SDS-PAGE, and the resolved proteins were transferred to nitrocellulose or polyvinylidene fluoride membrane. The membranes were blocked with 5% nonfat milk powder in Tris-buffered saline/Tween 20 (TBST) for 1 h at room temperature, then incubated with anti-phospho-ERK (Cell signaling), anti-ERK (Cell signaling), anti-LAMP1 (Abcam), anti-LC3 (Cell signaling), anti-cathepsin B (Cell signaling), anti-p62 (Cell signaling), anti-p62 (5114, Cell signaling), anti-phospho-mTOR (5536, Cell signaling), anti-mTOR (2983, Cell signaling), anti-phospho-ULK1 (14202, Cell signaling), anti-ULK1 (8054, Cell signaling), anti-TFEB (852501, Biolegend), and anti-GAPDH (Cell signaling) overnight at 4° C.

In assay [2] the test system is 5XFAD mice. Kind of assay: Immunofluorescence of active caspase 3, LC3 and LAMP1 in cortex layer V. It counts as in vivo. Particulars: 5XFAD mice cortex. The procedure:
as §1
Brains were dissected and analyzed by immunohistochemistry. For paraffin sections, brain hemispheres were embedded sagittally in paraffin and prepared into sections of […] slices. […] The sections were counterstained with DAPI. […] NeuN-positive and active caspase 3-positive cells from cortex layer V were counted using Icy micromanager program (Institut Pasteur, Paris, France).

Assay [3] deals with 5XFAD mice. Particulars: for decrease of plasma cathepsin B level compared to vehicle treated 5XFAD mice: 8-month-old 5XFAD mice, 3 months oral.
[4] abbreviates: SH-SY5Y cells treated with Aβ1-42.
[5] abbreviates: SH-SY5Y cells, in the presence of Aβ1-42 oligomers.

Where two headings read alike, the source gives them in different places.

With `CC(=O)Nc1cccc(-n2c(=O)n(C3CC3)c(=O)c3c(Nc4ccc(I)cc4F)n(C)c(=O)c(C)c32)c1` [trametinib], the “memory formation in Y-maze and novel object recognition tests” value in the assay with 5XFAD mice [1] is recorded as “recovery of memory formation”. Also, in the assay on SH-SY5Y cells (setting [4]), the “increase of LC3-II/LC-I level compared to Aβ1-42 treated alone cells” value stood at 65% and the “increase of mature cathepsin B level compared to Aβ1-42 treated alone cells” value was 44%. Besides, in the assay on SH-SY5Y cells (setting [5]), the “nuclear translocation of TFEB” value was “induced nuclear translocation of TFEB”; the “p62 as a marker of autophagic flux” value was “Degradation of p62”; the “phosphorylation of mTOR and ULK1 on Ser758” value was “inhibited the phosphorylation”. In the assay with 5XFAD mice [2], the LC3-LAMP1 co-stained cells entry is “Increased LC3-LAMP1 co-stained cells” and the “apoptosis (active caspase 3)” value is reported as “reduced apoptosis”. Besides, the “decrease of plasma cathepsin B level compared to vehicle treated 5XFAD mice” value in the assay with 5XFAD mice [3] (0.05 mg/kg/day) was 56.16%. The “decrease of plasma cathepsin B level compared to vehicle treated 5XFAD mice” value with 5XFAD mice [3] (0.1 mg/kg/day) was 99.2%. In addition, the “plasma cathepsin B level compared to 5XFAD-vehicle group” value in the assay with 5XFAD mice [3] (13-month-old 5XFAD mice, 0.1 mg/kg/day, 1 month oral) is on record as “decreasing trend”.
